Assay results from patent US11912682B2, “Isoindolinone compounds” (Monte Rosa Therapeutics, Inc., priority 2021, dated 2024).
Like-named read-outs stand apart in the source and are kept apart here.

Tests used:
[1] = target: GSPT1 (Homo sapiens (Human), UniProt P15170+Q96SW2); assay: immunofluorescence assay for GSPT1 degradation in CAL-51 cells (Example 4); assay type: cell-based
Protocol: The representative compounds were tested in an immunofluorescence assay for their activity to bind to degrade GSPT1. CAL-51 cells were purchased from DSMZ (cat. Number ACC302), sub-cultured in 90% Dulbecco's MEM (4.5 g/L glucose, Gibco 11965) +10% heat inactivated FBS (BioConcept, 2-01F136I) and incubated at 37° C., 5% CO2. For the assay, imaging microtiterplate Cell Carrier 96 Ultra (Perkin Elmer 6055302) were pre-coated with Fibronectin (Sigma F085, 30 μl at 0.2 μg/ml) in PBS (100 μl, Gibco 14190) for 45 min at room temperature, rinsed with PBS and CAL-51 cells (30 K cells/well) were plated and let to adhere overnight. Cells were treated with compounds typically using a serial dilution ranging from 30 μM to 0.1 nM for 6 hours. Compounds were stored at 10 mM DMSO stocks. Vehicle (DMSO), positive (CC-885, 10 μM) and rescue controls (positive control plus 0.2 μM bortezomib) were also included atthis stage. Cells were subsequently rinsed with PBS and fixed in 10% Formalin solution (50 μl, Sigma HT5011)) for 20 mins at room temperature. Following three consecutive PBS washes (100 μl), cells were permeabilized in 0.1% Triton X-100 in PBS (Sigma 93443, 50 μl) for 15 mins at room temperature. Following three further PBS washes, 50 μl blocking buffer (1% BSA, Sigma A4503, in PBS) was added for 45 min for signal-to-noise reduction.
Primary antibody (human GSPT1, Sigma HPA052488) was diluted in blocking buffer (dil.1/300, 35 μl/well) and incubated with the cells overnight at 4° C. After three PBS washes, Alexa-fluor 488 coupled secondary antibodies (Invitrogen, A32731, dil.1/1000), Alexa-fluor 647-Phalloidin (Invitrogen, A22287, dil.1/200) and DAPI (Thermo, #62248, dil.1/1000) were diluted in blocking buffer and incubated with the samples for 2 hours at room temperature. After three final PBS washes, samples were conserved in 100 μl PBS in the dark, until measurement. Image acquisition was performed on the Operetta High-Content Imager (Perkin-Elmer). Fluorescence intensity of Alexa-Fluor 488 (GSPT1), Alexa-Fluor 647 (Actin) and DAPI (Nucleus) were measured. For the determination of GSPT1 DC50 values, a custom algorithm implemented in the PerkinElmer image analysis software Harmony-Acapella® was developed. After user-defined setting of adjustment parameters, the analysis was run identically without human intervention for all image fields. DAPI staining of the nuclei was used to determine the location of cells using standard nuclei detection modules. Segmentation artifacts were removed by threshold-based filters for area, roundness and intensity. The outline of the cells was determined analogously from the sum of the normalized, smoothed DAPI and Actin channel, starting from each nucleus. The Alexa-Fluor 488 (GSPT1) signal intensity in each cell was finally measured, in order to obtain a Mean intensity per cell. GSPT1 degradation (DC50) was calculated after normalization to controls and data import in CDD vault Database, using non-linear regression.

[2] = target: Full length wild-type cereblon CRBN (Homo sapiens (Human), UniProt Q96SW2); assay: fluorescence polarization (FP) assay, cereblon binding
Sequence of Full length wild-type cereblon CRBN (Q96SW2 whole entry): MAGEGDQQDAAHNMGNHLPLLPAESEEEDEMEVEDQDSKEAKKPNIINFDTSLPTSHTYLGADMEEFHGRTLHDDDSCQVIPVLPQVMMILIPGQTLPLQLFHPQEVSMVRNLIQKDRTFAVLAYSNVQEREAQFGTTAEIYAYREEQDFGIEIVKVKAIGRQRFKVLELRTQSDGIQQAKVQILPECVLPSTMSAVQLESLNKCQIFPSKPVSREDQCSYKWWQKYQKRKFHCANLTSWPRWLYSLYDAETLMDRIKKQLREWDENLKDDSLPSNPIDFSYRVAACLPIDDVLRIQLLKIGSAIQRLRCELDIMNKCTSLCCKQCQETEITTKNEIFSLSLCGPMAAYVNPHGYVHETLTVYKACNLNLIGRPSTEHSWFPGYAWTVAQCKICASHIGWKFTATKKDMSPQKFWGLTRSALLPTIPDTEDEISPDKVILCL
Text: Compound activity was monitored in a fluorescence polarization (FP) homogeneous assay using 1-[5-({2-[2-(2-{[2-(2,6-dioxopiperidin-3-yl)-1,3-dioxo-2,3-dihydro-1H-isoindol-4-yl]oxy}acetamido)ethoxy]ethyl}carbamoyl)pentyl]-3,3-dimethyl-2-[(1E,3E)-5-[(2E)-1,3,3-trimethyl-5-sulfo-2,3-dihydro-1H-indol-2-ylidene]penta-1,3-dien-1-yl]-3H-indol-1-ium-5-sulfonate as a fluorescent probe. Unless otherwise stated, all reagents were purchased from Sigma Aldrich. […] Full length wild-type cereblon CRBN (80.0 nM, 10 μL) was incubated in assay buffer containing 20 mM HEPES (pH 8.0), […], 0.5 mM TCEP and 0.05% Tween 20 in the presence or absence of compound (300 nL). Inhibitors were stored as 10 mM DMSO stocks in an inert environment (low humidity, dark, low oxygen, room temperature) using the Storage Pod System. […] Following incubation at room temperature for 30 min, the assay was initiated by dispensing the probe to a final concentration of 5 nM (2.5 nL of a 20 μM stock) using the Echo ESXX. […] The FP signal was subsequently normalized to the no-compound control (i.e., DMSO). Analysis and IC50 values were derived using Dotmatics (Dotmatics UK) software.

[3] = 6 hours, read-out: Activity for GSPT1 degradation, Code (DC50)
[4] = GSPT1 degradation, read-out: DC50 value

Sequence of GSPT1 (P15170 whole entry): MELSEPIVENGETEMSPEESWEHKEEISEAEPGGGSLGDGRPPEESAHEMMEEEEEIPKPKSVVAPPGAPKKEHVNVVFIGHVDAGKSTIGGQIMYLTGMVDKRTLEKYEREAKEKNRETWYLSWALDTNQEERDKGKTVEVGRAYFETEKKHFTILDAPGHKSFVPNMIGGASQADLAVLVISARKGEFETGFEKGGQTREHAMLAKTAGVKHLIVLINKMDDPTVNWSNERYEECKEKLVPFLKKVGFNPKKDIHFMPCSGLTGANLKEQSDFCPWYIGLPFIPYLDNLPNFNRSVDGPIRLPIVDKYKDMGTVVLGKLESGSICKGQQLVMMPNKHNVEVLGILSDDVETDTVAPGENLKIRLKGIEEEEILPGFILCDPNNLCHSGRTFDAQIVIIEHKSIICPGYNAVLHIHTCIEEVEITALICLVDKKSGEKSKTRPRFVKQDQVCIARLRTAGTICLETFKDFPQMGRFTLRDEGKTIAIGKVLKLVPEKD
Sequence of GSPT1 (Q96SW2 whole entry): as the sequence (Q96SW2 whole entry) above
Sequence of GSPT1 (Q16531 2-1140 partner): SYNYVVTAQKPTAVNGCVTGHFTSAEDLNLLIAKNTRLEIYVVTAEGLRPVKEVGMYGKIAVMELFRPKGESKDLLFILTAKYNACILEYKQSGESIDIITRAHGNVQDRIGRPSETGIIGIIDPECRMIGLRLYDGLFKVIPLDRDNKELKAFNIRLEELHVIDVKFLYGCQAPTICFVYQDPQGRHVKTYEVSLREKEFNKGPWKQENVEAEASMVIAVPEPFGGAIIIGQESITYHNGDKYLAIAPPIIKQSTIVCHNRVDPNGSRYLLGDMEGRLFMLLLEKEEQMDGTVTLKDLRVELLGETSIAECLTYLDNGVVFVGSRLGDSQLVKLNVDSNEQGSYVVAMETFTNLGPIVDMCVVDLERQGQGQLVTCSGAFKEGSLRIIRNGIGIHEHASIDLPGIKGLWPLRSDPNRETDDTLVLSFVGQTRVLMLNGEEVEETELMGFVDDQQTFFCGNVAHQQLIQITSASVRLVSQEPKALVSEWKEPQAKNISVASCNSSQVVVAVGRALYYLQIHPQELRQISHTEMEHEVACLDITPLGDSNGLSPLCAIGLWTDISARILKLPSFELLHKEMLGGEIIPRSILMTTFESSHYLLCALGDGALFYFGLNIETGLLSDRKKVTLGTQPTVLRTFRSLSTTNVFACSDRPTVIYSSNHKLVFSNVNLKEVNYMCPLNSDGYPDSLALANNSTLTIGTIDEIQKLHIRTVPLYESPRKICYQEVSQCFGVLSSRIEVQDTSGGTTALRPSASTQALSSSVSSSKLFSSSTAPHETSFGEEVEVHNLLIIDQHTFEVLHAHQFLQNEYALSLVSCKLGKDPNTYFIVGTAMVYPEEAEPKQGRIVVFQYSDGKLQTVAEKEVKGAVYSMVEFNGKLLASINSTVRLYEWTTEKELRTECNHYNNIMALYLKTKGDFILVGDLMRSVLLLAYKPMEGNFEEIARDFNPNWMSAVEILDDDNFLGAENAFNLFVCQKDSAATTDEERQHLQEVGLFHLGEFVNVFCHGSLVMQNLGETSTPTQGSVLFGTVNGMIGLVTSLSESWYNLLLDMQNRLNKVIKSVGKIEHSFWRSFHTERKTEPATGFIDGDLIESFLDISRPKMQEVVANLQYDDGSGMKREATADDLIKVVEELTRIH

Structure (SMILES)	DC50 [1, 3]	DC50 [1, 4]	IC50 ([2]; read-out: IC50 value)	IC50 ([2]; read-out: rFP IC50)
Cc1c(Cl)cc(NC(=O)OCc2ccc3c(c2)C(=O)N(C2CCC(=O)NC2=O)C3)cc1CN1CCOCC1 (stereo not shown) [Compound 2]	< 30 nM	≤ 30 nM	< 1100 nM	
O=C1CCC(N2Cc3ccc(COC(=O)Nc4cc(CN5CCOCC5)cc(OC(F)(F)F)c4)cc3C2=O)C(=O)N1 (stereo not shown) [Compound 4]	< 30 nM	≤ 30 nM	< 1100 nM	
Cc1cc(NC(=O)OCc2ccc3c(c2)C(=O)N(C2CCC(=O)NC2=O)C3)cc(C)n1 (stereo not shown) [Compound 7]	30 to 300 nM		< 1100 nM	
Cc1cc(C)cc(NC(=O)OCc2ccc3c(c2)C(=O)N(C2CCC(=O)NC2=O)C3)c1 (stereo not shown) [Compound 8]	< 30 nM	≤ 30 nM	< 1100 nM	
Cc1c(Cl)cc(NC(=O)OCc2ccc3c(c2)C(=O)N(C2CCC(=O)NC2=O)C3)cc1CN1CC2CC1CO2 (stereo not shown) [Compound 13]	< 30 nM	≤ 30 nM	< 1100 nM	
O=C1CCC(N2Cc3ccc(COC(=O)Nc4cc(Cl)cc(OCC5CCNC5)c4)cc3C2=O)C(=O)N1 (stereo not shown) [Compound 16]	> 300 nM			< 500 nM
Cc1ccc(NC(=O)OC(C)c2ccc3c(c2)C(=O)N(C2CCC(=O)NC2=O)C3)cc1Cl (stereo not shown) [Compound 17]	> 300 nM			> 1700 nM
O=C1CCC(N2Cc3ccc(COC(=O)Nc4ccc5c(c4)OCC5)cc3C2=O)C(=O)N1 (stereo not shown) [Compound 18]	30 to 300 nM		< 1100 nM	
O=C1CCC(N2Cc3ccc(COC(=O)Nc4cc(Cl)cc(OC(F)F)c4)cc3C2=O)C(=O)N1 (stereo not shown) [Compound 19]	30 to 300 nM			> 1700 nM
Cc1c(Cl)cc(NC(=O)OCc2ccc3c(c2)C(=O)N(C2CCC(=O)NC2=O)C3)cc1CN1CC2CCC(C1)O2 (stereo not shown) [Compound 21]	< 30 nM	≤ 30 nM		> 1700 nM
O=C1CCC(N2Cc3ccc(COC(=O)NCC4CC4)cc3C2=O)C(=O)N1 (stereo not shown) [Compound 22]	> 300 nM			> 1700 nM
O=C1CCC(N2Cc3ccc(COC(=O)N4CCCCC4)cc3C2=O)C(=O)N1 (stereo not shown) [Compound 23]	> 300 nM			< 500 nM
Cc1ccc(NC(=O)OCc2ccc3c(c2)C(=O)N(C2CCC(=O)NC2=O)C3)cc1OC(F)F (stereo not shown) [Compound 24]	< 30 nM	≤ 30 nM	< 1100 nM	
Cc1c(CN2CCOCC2)cc(NC(=O)OCc2ccc3c(c2)C(=O)N(C2CCC(=O)NC2=O)C3)cc1OC(F)F (stereo not shown) [Compound 25]	< 30 nM	≤ 30 nM	< 1100 nM	
O=C1CCC(N2Cc3ccc(COC(=O)N4CCCC4)cc3C2=O)C(=O)N1 (stereo not shown) [Compound 26]	> 300 nM		< 1100 nM	
CC(C)CCNC(=O)OCc1ccc2c(c1)C(=O)N(C1CCC(=O)NC1=O)C2 (stereo not shown) [Compound 27]	> 300 nM			> 1700 nM
O=C1CCC(N2Cc3ccc(COC(=O)NC4CCCC4)cc3C2=O)C(=O)N1 (stereo not shown) [Compound 29]	> 300 nM		< 1100 nM	
O=C1CCC(N2Cc3ccc(COC(=O)N4CCC(Oc5ccccc5)C4)cc3C2=O)C(=O)N1 (stereo not shown) [Compound 30]	> 300 nM			< 500 nM

Structure (SMILES)	DC50 [1, 3]	DC50 [1, 4]	IC50 ([2]; read-out: IC50 value)	IC50 ([2]; read-out: rFP IC50)
O=C1CCC(N2Cc3ccc(COC(=O)Nc4cc(F)cc(OC(F)F)c4)cc3C2=O)C(=O)N1 (stereo not shown) [Compound 31]	30 to 300 nM			> 1700 nM
O=C1CCC(N2Cc3ccc(COC(=O)Nc4ccc(F)c(OC(F)F)c4)cc3C2=O)C(=O)N1 (stereo not shown) [Compound 32]	30 to 300 nM			> 1700 nM
Cc1c(CN2CCOCC2)cc(NC(=O)OCc2ccc3c(c2)C(=O)N(C2CCC(=O)NC2=O)C3)cc1OC(F)(F)F (stereo not shown) [Compound 34]	< 30 nM	≤ 30 nM		> 1700 nM
O=C1CCC(N2Cc3ccc(COC(=O)NC4CCN(c5ccccn5)CC4)cc3C2=O)C(=O)N1 (stereo not shown) [Compound 35]	> 300 nM			< 500 nM
O=C1CCC(N2Cc3ccc(COC(=O)N4CCN(c5ccccc5)CC4)cc3C2=O)C(=O)N1 (stereo not shown) [Compound 36]	> 300 nM			< 500 nM
COc1cc(NC(=O)OCc2ccc3c(c2)C(=O)N(C2CCC(=O)NC2=O)C3)ccc1C (stereo not shown) [Compound 37]	30 to 300 nM			> 1700 nM
COc1cc(Cl)ccc1NC(=O)OCc1ccc2c(c1)C(=O)N(C1CCC(=O)NC1=O)C2 (stereo not shown) [Compound 38]	> 300 nM		< 1100 nM	
O=C1CCC(N2Cc3ccc(COC(=O)Nc4ccc(C5CC5)cc4)cc3C2=O)C(=O)N1 (stereo not shown) [Compound 39]	< 30 nM	≤ 30 nM	< 1100 nM	
CN1CCC(COc2cc(Cl)cc(NC(=O)OCc3ccc4c(c3)C(=O)N(C3CCC(=O)NC3=O)C4)c2)C1 (stereo not shown) [Compound 40]	30 to 300 nM			< 500 nM
Cc1c(F)cc(NC(=O)OCc2ccc3c(c2)C(=O)N(C2CCC(=O)NC2=O)C3)cc1CN1CCOCC1 (stereo not shown) [Compound 41]	< 30 nM	≤ 30 nM	< 1100 nM	
Cc1c(Cl)cc(NC(=O)OCc2ccc3c(c2)C(=O)N(C2CCC(=O)NC2=O)C3)cc1OC1CCNC1 (stereo not shown) [Compound 44]	30 to 300 nM		< 1100 nM	
CCc1cc(NC(=O)OCc2ccc3c(c2)C(=O)N(C2CCC(=O)NC2=O)C3)cc(Cl)c1C (stereo not shown) [Compound 45]	30 to 300 nM			> 1700 nM
CN1CCC(Oc2cc(Cl)cc(NC(=O)OCc3ccc4c(c3)C(=O)N(C3CCC(=O)NC3=O)C4)c2)C1 (stereo not shown) [Compound 46]	< 30 nM	≤ 30 nM		< 500 nM
O=C1CCC(N2Cc3ccc(COC(=O)Nc4ccc(-c5ccccn5)cc4)cc3C2=O)C(=O)N1 (stereo not shown) [Compound 50]	< 30 nM	≤ 30 nM		> 1700 nM
COc1cc(NC(=O)OCc2ccc3c(c2)C(=O)N(C2CCC(=O)NC2=O)C3)cnc1C (stereo not shown) [Compound 51]	30 to 300 nM		< 1100 nM	
Cc1c(Cl)cc(NC(=O)OCc2ccc3c(c2)C(=O)N(C2CCC(=O)NC2=O)C3)cc1OCC1CCNC1 (stereo not shown) [Compound 52]	> 300 nM		< 1100 nM	
O=C1CCC(N2Cc3ccc(COC(=O)Nc4cnc5c(c4)CCC5)cc3C2=O)C(=O)N1 (stereo not shown) [Compound 53]	30 to 300 nM		< 1100 nM	
